The values below come from paper PMC8596838, “Xylose‐Configured Cyclophellitols as Selective Inhibitors for Glucocerebrosidase” (Chembiochem, 2021).

What all share (assay type): biochemical
What all share (conditions): 30 min, pH 6.0

One test has as its target T1, GBA (Homo sapiens, UniProt P04062).
T1 construct: HEK293T cells that contain endogenous GBA; endogenous in cells; host or cells: HEK293T (ATCC CRL-3216) overexpressing GBA2 and GBA3
T1 sequence (P04062 40-536): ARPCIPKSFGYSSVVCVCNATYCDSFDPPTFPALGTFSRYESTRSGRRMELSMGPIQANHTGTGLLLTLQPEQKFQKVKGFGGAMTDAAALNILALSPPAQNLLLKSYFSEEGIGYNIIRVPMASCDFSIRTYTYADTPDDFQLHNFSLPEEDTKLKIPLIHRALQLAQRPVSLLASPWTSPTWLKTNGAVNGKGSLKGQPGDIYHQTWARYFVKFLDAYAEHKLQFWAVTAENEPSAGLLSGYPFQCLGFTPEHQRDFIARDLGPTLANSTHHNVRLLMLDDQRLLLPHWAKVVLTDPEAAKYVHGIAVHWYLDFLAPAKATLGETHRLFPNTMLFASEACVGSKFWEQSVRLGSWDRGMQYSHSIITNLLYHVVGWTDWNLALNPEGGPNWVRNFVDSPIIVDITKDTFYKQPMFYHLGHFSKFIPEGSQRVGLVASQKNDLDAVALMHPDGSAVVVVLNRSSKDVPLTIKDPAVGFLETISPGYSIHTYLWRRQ
The test is described as follows: ABP labeling of β-D-glucosidases in HEK293T cell lysate, GBA. As for the experimental part:
(§1) We next investigated, by ABPP, the GBA/GBA2/GBA3 activity and selectivity of β‐D‐xylo‐cyclophellitol aziridine ABPs 6 and 8 in comparison to those of GBA‐specific ABP 9 [31] or ABP 10.
(§2) Figure 4 (A) ABP labeling of β‐D‐glucosidases. A lysate of HEK293T cells expressing human GBA, GBA2 and GBA3 was incubated with indicated ABPs (6, 9 or 10) for 30 min at pH 6.0. Fluorescently labeled proteins were visualized after SDS‐PAGE. (B) Labeling with ABP 6 of wild type or mutant GBA2 (E527G nucleophile mutation and D667G acid/base mutation) expressed in HEK293T cells.
(§3) ABP labeling procedure: Glycosidases were labeled with excess fluorescent ABPs at optimum conditions. […] After ABP incubation, proteins were denatured by boiling the samples with 5× Laemmli buffer (50 % (v/v) 1 M Tris‐HCl, pH 6.8, 50 % (v/v) 100 % glycerol, 10 % (w/v) DTT, 10 % (w/v) SDS, 0.01 % (w/v) bromophenol blue) for 5 min at 98 °C, and separated by electrophoresis on 10 % (w/v) SDS‐PAGE gels running continuously at 90 V. Wet slab‐gels were scanned on fluorescence using the Typhoon FLA 9500 (GE Healthcare) at λEX 473 nm and λEM≥510 nm for green fluorescent ABP 8; and at λEX 635 nm and λEM≥665 nm for ABP 6, 9 and 10. ABP‐emitted fluorescence was quantified using ImageQuant software (GE Healthcare, Chicago, IL, USA) and curve‐fitted using Prism 8.0 (GraphPad Software). […]

The target of another test is T2, GBA3 (Homo sapiens, UniProt Q9H227).
T2 construct: expressed in transfected cells; host or cells: HEK293T (GBA/GBA2 KO background for the fluorogenic assay; endogenous-GBA background with GBA2 and GBA3 overexpressed for ABPP and intact-cell assays)
T2 sequence (Q9H227 1-469): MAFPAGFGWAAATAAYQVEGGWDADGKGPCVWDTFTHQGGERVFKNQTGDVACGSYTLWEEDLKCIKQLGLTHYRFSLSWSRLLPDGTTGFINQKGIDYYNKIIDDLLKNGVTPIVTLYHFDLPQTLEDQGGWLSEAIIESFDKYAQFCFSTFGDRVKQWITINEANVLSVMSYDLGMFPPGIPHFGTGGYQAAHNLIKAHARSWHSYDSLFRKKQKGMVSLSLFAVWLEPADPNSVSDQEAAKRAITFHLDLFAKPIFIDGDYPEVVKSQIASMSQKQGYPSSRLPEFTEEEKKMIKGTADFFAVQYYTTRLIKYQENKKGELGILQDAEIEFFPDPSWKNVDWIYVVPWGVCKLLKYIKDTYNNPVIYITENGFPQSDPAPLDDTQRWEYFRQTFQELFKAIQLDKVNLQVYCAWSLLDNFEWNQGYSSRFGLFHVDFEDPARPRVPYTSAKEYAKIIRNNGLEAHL
As to the kind of experiment: ABP labeling of β-D-glucosidases in HEK293T cell lysate, GBA3. As for the experimental part: as §1, §2, §3

The next test has as its target T3, GBA2 (Homo sapiens, UniProt Q9HCG7).
T3 construct: expressed in transfected cells; host or cells: HEK293T (GBA/GBA2 KO background for the fluorogenic assay; endogenous-GBA background with GBA2 and GBA3 overexpressed for ABPP and intact-cell assays)
T3 sequence (Q9HCG7 1-927): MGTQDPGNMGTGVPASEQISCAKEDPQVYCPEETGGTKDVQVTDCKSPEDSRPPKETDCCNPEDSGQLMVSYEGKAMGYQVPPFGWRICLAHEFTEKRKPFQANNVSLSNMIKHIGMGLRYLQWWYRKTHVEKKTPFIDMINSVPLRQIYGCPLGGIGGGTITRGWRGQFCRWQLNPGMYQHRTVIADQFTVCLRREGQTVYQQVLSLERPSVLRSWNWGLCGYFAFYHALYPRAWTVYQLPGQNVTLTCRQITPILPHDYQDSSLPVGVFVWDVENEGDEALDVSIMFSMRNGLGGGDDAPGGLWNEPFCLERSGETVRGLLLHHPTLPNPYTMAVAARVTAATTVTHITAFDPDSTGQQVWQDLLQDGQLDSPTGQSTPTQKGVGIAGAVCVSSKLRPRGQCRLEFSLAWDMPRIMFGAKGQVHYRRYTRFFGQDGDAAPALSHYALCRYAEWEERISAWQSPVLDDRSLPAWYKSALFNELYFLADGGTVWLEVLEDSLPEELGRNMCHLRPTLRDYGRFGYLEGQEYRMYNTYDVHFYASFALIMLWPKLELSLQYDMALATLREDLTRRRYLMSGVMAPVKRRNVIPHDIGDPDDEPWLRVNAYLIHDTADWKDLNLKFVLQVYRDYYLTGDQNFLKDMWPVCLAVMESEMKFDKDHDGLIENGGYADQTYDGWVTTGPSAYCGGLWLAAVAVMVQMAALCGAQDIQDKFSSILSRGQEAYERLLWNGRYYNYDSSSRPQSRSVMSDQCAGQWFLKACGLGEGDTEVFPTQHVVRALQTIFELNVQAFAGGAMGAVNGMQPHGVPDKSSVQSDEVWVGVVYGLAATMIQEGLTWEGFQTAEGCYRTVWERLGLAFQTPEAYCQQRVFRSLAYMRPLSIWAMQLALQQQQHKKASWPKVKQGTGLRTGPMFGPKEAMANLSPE
As to the kind of experiment: ABP labeling of β-D-glucosidases in HEK293T cell lysate, GBA2. On the procedure:
as §1, §2, §3

Take `CN1/C(=C/C=C/C=C/C2=[N+](CCCCCC(=O)NCc3cn(C[C@@H]4[C@@H](O)[C@H](O)[C@@H](O)[C@@H]5O[C@H]45)nn3)c3ccccc3C2(C)C)C(C)(C)c2ccccc21` [ABP 9, reference compound]: the “selectivity of ABP labeling towards GBA over GBA2 and GBA3” value at GBA is “most selective ABP towards GBA over GBA2 and GBA3”.

Turning to `CN1/C(=C/C=C/C=C/C2=[N+](CCCCCC(=O)NCc3cn(CCCCCCCCN4[C@H]5[C@H](O)[C@@H](O)[C@H](O)C[C@H]54)nn3)c3ccccc3C2(C)C)C(C)(C)c2ccccc21` (stereo partly drawn) [ABP 6], at GBA3, the “labeling of GBA3 compared with ABP 10” value is recorded as “tenfold less efficiently”. Further, the “labeling pattern of GBA and GBA2” value on GBA2 is “very similar to that of the broad‐specific β‐D‐glucosidase ABP 10”.
